Values of other authors in US20200129491A1, “METHODS OF TREATING BRAIN TUMORS USING COMBINATION THERAPY” (AGIOS PHARMACEUTICALS, INC., priority 2017, published 2020).
Read-outs that look alike come from different tables or passages of the source.

Key:
mIDH1-driven gliomas = conditions: some model systems; D. Rohle et al. Science 340:626-630 (2013)
mIDH1 cells = conditions: in vitro, mIDH1 glioma models; R. J. Molenaar et al., Cancer Research 75:4790-4802 (2015)
mutant IDH1 proteins [1] = conditions: biochemical assays
mutant IDH1 proteins [2] = conditions: cellular assays

Row | Compound | Inhibition of mutant IDH1 (mIDH1) (mutant IDH1 (mIDH1)) | Growth of mIDH1-driven gliomas (mIDH1-driven gliomas) | Sensitivity of mIDH1 cells to radiation therapy (mIDH1 cells) | Inhibition of mutant IDH1 proteins (mutant IDH1 proteins [1]) | Inhibition of mutant IDH1 proteins (mutant IDH1 proteins [2])
1 | Cc1ccccc1C(C(=O)NC1CCCCC1)N(C(=O)Cn1ccnc1C)c1cccc(F)c1 (centres unmarked) [AGI-5198] | inhibit | repress growth | desensitized to radiation therapy | – | –
2 | N#Cc1ccnc(N2C(=O)CC[C@H]2C(=O)N(c2cncc(F)c2)[C@H](C(=O)NC2CC(F)(F)C2)c2ccccc2Cl)c1 [Ivosidenib, (S)—N—((S)-1-(2-Chlorophenyl)-2-(3,3-difluorocyclobutylamino)-2-oxoethyl)-1-(4-cyanopyridin-2-yl)-N-(5-fluoropyridin-3-yl)-5-oxopyrrolidine-2-carboxamide] | – | – | – | inhibitor of mutant IDH1 proteins | inhibitor of mutant IDH1 proteins
